One molecule from patent US9351918B2, “Polyglycerol-azelaic acid polyesters for cosmetic applications” (GIULIANI S.P.A., priority 2012, dated 2016) can be followed below.

In series [1] the test system is TNF-α gene expression in human keratinocytes NCTC 2544. Description: Test of irritancy potential in NCTC2544: TNF-α gene expression by RT-PCR, compared with LPS positive control. Format: cell-based. Particulars: 20 μM, 24 hours. As for the experimental part: The irritant potential of the derivative (POLY-AZ) was also determined in vitro compared with a positive control (cells treated with 5 μg/ml of lipopolysaccharide). The results were compared with those obtained using azelaic acid (AZ-ACID) in the same experimental model.
(§1) The TNF-α gene expression in NCTC 2544 was evaluated using RT-PCR.
Test of Irritancy Potential in NCTC2544
When the cells (human keratinocytes NCTC 2544) reached approximately 80% confluence, they were separated with trypsin/EDTA and seeded at a density of 1×10^6 cells/ml in a 12-well plate and then incubated at 37° C., 5% CO2 (24 hours).
Day 2: 24-Hour Exposure to Substances […]
(§2) The extracted and quantified total RNA was amplified using the “High Capacity cDNA Reverse Transcription Kit” (Applied Biosystems). […]
(§3) The relative quantification method was used which compares the relative concentration of the gene of interest (target) in unknown samples to a calibrator or control sample (untreated cells). […]
(§4) The data provided by the Stratagene Mx3000P tool was recorded by the MXpro v.4.01 software. […]
The TNF-α gene expression in NCTC 2544 cells was also evaluated after treatments with 20 μM of polyglyceryl-3-azelaiate and 20 μM of azelaic acid compared with cells treated with LPS (5 μg/ml) in the culture medium, in order to compare the effects of these compounds against a known irritant agent (LPS). […]

Series [2] shares this test system. Kind of series: Anti-inflammatory test on NCTC2544: TNF-α gene expression by RT-PCR with LPS from E. coli. It is filed as cell-based. Particulars: 20 μM together with LPS 5 μg/ml, 24 hours. As to the method: The anti-inflammatory effects were investigated of polyglyceryl-3 azelaiate oligomers (POLY-AZ) obtained with the method in Example 1 in an in vitro model of inflammation on human keratinocytes NCTC2544, and using lipopolysaccharide
(LPS) from E. coli to mediate inflammation or irritation. The effect of the derivative in the models used was compared with that of azelaic acid (AZ-ACID), a known anti-inflammatory agent.
as §1
There are four phases to the gene expression analysis:
1. Treatment of cells with active compounds for 16, 24 and 48 hours; […]
as §2, §3, §4
Following the preliminary model validation experiment described above, the TNF-α gene expression was evaluated using RT-PCR on NCTC 2544 cells, after treatments with 20 μM of polyglyceryl-3-azelaiate and 20 μM of azelaic acid together with LPS at 5 μg/ml in the culture medium to evaluate the anti-inflammatory effect of the two compounds. […]

For `O=C(O)CCCCCCCC(=O)O` [azelaic acid, nonanedioic acid], the Irritancy potential entry in series [1] is recorded as “neither are irritating”. For the same molecule, the “Inhibitory effect on TNF-α gene expression (anti-inflammatory effect)” value in series [2] is recorded as “does not produce an inhibitory effect”.
